Results reported in patent US6646181B1, “Solid matrix control of seed conditioning using selected cell cycle stages” (Kamterter II, L.L.C., priority 1987, dated 2003).

Tested on: lettuce (Lactuca sativa) 'Montello'
Assay: Alleviation of thermodormancy: lettuce germination at 35 C
Assay type: in vivo
Details: 35 C in the dark, after 10 days, priming 20-24 hours
Method: Alleviation of thermodormancy by priming was studied in lettuce (Lactuca sativa) ‘Montello’. SMP of lettuce was performed with Agro-Lig (Table 1). Conventional priming treatments included: −1.5 MPa PEG 8000 (Bradford, 1986, supra) and 1.0% K3PO4 (Cantliffe, et al., 1984, Plant Physiol. 75:290-294). After priming, seeds were rinsed and allowed to dry. Seeds were placed to germinate on moistened blotters in closed containers. The containers were maintained at a constant 35 C in the dark. There were four replications of 50 seeds each and the percent germination was determined after 10 days.

For `O=P([O-])([O-])[O-].[K+].[K+].[K+]` [1.0% K3PO4, K3PO4], the Percent germination was 71 a %.
